Key:
Format in all cases: biochemical
[1] = target: T1, GmCOSY (Glycine max, UniProt A0A0R0H5A1); assay: coupled At4CL1 assay, LC-MS of scopoletin; details: substrate made in situ by At4CL1 from 6-hydroxyferulic acid, ATP, CoA, Mg2+; 20 mM HEPES; spontaneous background
T1 construct: gene LOC100817021
T1 sequence (A0A0R0H5A1 1-452): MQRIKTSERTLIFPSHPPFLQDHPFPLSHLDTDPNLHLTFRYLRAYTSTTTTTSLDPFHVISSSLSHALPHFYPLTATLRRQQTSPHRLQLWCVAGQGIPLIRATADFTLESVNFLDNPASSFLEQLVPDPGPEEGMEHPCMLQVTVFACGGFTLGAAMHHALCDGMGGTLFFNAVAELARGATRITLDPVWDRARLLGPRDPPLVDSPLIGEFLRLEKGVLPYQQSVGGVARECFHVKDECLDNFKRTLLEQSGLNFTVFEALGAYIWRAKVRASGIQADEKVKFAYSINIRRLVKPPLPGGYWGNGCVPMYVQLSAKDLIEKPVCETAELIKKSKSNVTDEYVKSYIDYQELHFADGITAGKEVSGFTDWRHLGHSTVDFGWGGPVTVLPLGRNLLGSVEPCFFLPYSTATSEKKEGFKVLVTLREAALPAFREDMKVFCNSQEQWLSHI

[2] = target: T2, StCOSY (Solanum tuberosum, UniProt M0ZYT4); assay: coupled At4CL1 assay, LC-MS of scopoletin; details: substrate made in situ by At4CL1 from 6-hydroxyferulic acid, ATP, CoA, Mg2+; 20 mM HEPES; spontaneous background
T2 sequence (M0ZYT4 1-444): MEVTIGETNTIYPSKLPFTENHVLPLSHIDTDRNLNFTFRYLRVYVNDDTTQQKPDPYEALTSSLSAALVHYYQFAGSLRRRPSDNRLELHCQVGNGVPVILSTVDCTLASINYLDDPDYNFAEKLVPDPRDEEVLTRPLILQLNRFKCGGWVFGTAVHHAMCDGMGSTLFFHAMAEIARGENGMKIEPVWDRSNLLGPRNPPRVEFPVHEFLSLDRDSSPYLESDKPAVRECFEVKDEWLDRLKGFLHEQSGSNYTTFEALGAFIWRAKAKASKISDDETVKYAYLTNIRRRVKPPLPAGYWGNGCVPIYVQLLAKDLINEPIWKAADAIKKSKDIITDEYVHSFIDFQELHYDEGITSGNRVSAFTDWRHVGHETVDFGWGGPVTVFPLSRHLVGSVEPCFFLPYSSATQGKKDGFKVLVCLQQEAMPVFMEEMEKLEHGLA

[3] = target: T3, AtCOSY (Arabidopsis thaliana, UniProt Q8LF28); assay: coupled At4CL1 assay, LC-MS of scopoletin; details: substrate made in situ by At4CL1 from 6-hydroxyferulic acid, ATP, CoA, Mg2+; 20 mM HEPES; spontaneous background
T3 construct: gene COSY; N-terminal 8xHis tag with TEV site (pHis8-4), tag cleaved; E. coli BL21(DE3); domains 1-181, 182-229, 230-451
T3 sequence (Q8LF28 1-451): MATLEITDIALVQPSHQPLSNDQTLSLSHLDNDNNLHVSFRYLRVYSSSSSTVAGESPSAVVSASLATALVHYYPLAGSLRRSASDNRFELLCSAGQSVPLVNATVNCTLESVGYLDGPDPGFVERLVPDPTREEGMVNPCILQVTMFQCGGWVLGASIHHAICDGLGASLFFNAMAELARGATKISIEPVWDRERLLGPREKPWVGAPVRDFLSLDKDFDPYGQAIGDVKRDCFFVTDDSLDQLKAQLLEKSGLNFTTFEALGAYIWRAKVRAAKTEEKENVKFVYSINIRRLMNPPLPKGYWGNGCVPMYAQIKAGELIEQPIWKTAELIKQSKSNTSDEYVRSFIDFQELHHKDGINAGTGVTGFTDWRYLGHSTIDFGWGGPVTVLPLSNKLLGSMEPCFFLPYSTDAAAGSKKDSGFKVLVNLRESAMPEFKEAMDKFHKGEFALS

[4] = target: T4, SbCOSY (Sorghum bicolor, UniProt C5Z4D6); assay: coupled At4CL1 assay, LC-MS of scopoletin; details: substrate made in situ by At4CL1 from 6-hydroxyferulic acid, ATP, CoA, Mg2+; 20 mM HEPES; spontaneous background
T4 construct: gene SORBI_3010G043700
T4 sequence (C5Z4D6 1-456): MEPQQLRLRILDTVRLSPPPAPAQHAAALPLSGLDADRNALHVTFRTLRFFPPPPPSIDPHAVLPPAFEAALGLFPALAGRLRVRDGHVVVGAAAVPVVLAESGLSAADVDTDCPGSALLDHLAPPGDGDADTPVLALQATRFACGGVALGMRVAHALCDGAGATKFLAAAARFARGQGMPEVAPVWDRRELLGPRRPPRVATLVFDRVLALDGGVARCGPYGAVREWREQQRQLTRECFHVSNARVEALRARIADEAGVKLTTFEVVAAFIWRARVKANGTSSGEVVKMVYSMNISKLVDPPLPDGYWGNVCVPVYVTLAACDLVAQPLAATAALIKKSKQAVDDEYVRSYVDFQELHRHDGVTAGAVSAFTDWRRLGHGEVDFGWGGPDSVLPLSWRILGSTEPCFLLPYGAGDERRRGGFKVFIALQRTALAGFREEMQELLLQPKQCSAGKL

[5] = target: T3, AtCOSY; assay: coupled At4CL1 assay, LC-MS of umbelliferone; details: substrate made in situ by At4CL1 from 2-hydroxy-p-coumaric acid (CAS 614-86-8), ATP, CoA, Mg2+; 20 mM HEPES

## COc1cc(/C=C/C(=O)SCCNC(=O)CCNC(=O)[C@H](O)C(C)(C)COP(=O)(O)OP(=O)(O)OC[C@H]2O[C@@H](n3cnc4c(N)ncnc43)[C@H](O)[C@@H]2OP(=O)(O)O)c(O)cc1O [6-hydroxyferuloyl-CoA]
[1]
  coupled At4CL1 assay, LC-MS of scopoletin: GmCOSY, StCOSY and SbCOSY contain coumarin synthase activity comparable to that of AtCOSY
[2]
  coupled At4CL1 assay, LC-MS of scopoletin: GmCOSY, StCOSY and SbCOSY contain coumarin synthase activity comparable to that of AtCOSY
[3]
  coupled At4CL1 assay, LC-MS of scopoletin: addition of AtCOSY resulted in significant acceleration of coumarin production
[4]
  coupled At4CL1 assay, LC-MS of scopoletin: GmCOSY, StCOSY and SbCOSY contain coumarin synthase activity comparable to that of AtCOSY

## CC(C)(COP(=O)(O)OP(=O)(O)OC[C@H]1O[C@@H](n2cnc3c(N)ncnc32)[C@H](O)[C@@H]1OP(=O)(O)O)[C@@H](O)C(=O)NCCC(=O)NCCSC(=O)/C=C/c1ccc(O)cc1O [2-hydroxy-p-coumaroyl CoA]
[5]
  coupled At4CL1 assay, LC-MS of umbelliferone: addition of AtCOSY resulted in significant acceleration of coumarin production

Source: publication PMC9898226, “Emergence of a proton exchange-based isomerization and lactonization mechanism in the plant coumarin synthase COSY” (Nature Communications, 2023)
